From article PMC11858653, “Design, Synthesis and Bioactive Evaluation of Topo I/c-MYC Dual Inhibitors to Inhibit Oral Cancer via Regulating the PI3K/AKT/NF-κB Signaling Pathway” (Molecules, 2025)
Where “and” joins values, the source holds several entries; their conditions need not be identical. Identical values can stand only once. Entries after “also recorded” stand apart in the source; their conditions may differ.

Experiments:
[1] = tested on: NCI-H460; assay: MTT antiproliferative assay, NCI-H460; type: cell-based, human; conditions: Homo sapiens, NCI-H460, 48 h, mean ± SD
[2] = tested on: A549; assay: MTT antiproliferative assay, A549; type: cell-based, human; conditions: Homo sapiens, A549, 48 h, mean ± SD
[3] = tested on: ACHN; assay: MTT antiproliferative assay, ACHN; type: cell-based, human; conditions: Homo sapiens, ACHN, 48 h, mean ± SD
[4] = tested on: Cal27; assay: MTT antiproliferative assay, Cal27; type: cell-based, human; conditions: Homo sapiens, CAL-27, 48 h, mean ± SD
[5] = tested on: SV-HUC-1; assay: MTT assay, normal cell line SV-HUC-1; type: cell-based; conditions: SV-HUC1, 48 h, mean ± SD
[6] = tested on: PI3K/AKT/NF-κB pathway; assay: Western blot of PI3K/AKT/NF-κB signaling pathway in Cal27 cells; type: cell-based, human; conditions: Cal27, 24 h
Protocol: After Cal27 cells had been treated with the desired concentration of each drug for 24 h, the cells were collected and the total protein was extracted. The cells were then separated on a gel of appropriate concentration and transferred to a PVDF membrane. After blocking with milk, the membrane was incubated with primary antibody at 4 °C overnight. Subsequently, the membrane was incubated with horseradish peroxidase-coupled secondary antibody for 2 h. Finally, the protein bands were used to detect the immunoreactive signal using an enhanced chemiluminescence kit.

[7] = tested on: Cal27 cells; assay: Colony formation assay; type: cell-based, human; conditions: Cal27, tested 0.5, 1, 1.5 μM
Protocol: The colony formation assay was used to evaluate the antiproliferative effect of compound 7be on Cal27 cells. Cal27 cells were grown in 6-well plates at a density of 700 cells per well and then treated with different concentrations of compound 7be for 48 h. The treatment medium was removed and fresh medium was added. After 2 weeks of culture, cells were fixed with 4% paraformaldehyde for 8 min and stained with crystal violet solution (10%). Finally, they were imaged with a camera.

[8] = tested on: Cal27 cells; assay: Wound healing assay; type: cell-based, human; conditions: 1-4 μM, 24 h
Protocol: Cal27 cells in the logarithmic growth phase were inoculated into 6-well plates and cultured until the cells fused into a monolayer. A linear wound was then formed by scratching vertically with a 200 μL sterilized gun tip. The cells were washed 3 times with PBS to remove scraped off cells, and each well was incubated by adding medium. The initial scratched area was recorded with a microscope. Then different concentrations of the compounds to be tested were added, and the area of the scratches was recorded by microscopy 24 h later.

[9] = tested on: Cal27 cells; assay: Cell cycle analysis by flow cytometry; type: cell-based, human; conditions: Cal27, 4 μM, 24 h
Protocol: Cal27 cells were treated with compound 7be for 24 h. Next, Cal27 cells were collected and suspended in ice ethanol at 4 °C for at least 24 h. Subsequently, Cal27 cells were incubated in RNase A and PI staining solution at 37 °C, protected from light, for 0.5 h. Finally, cells were detected by flow cytometry.

[10] = tested on: Cal27 cells; assay: MDC staining for autophagy; type: cell-based, human; conditions: 24 h
Protocol: In order to determine whether compound 7be induced autophagy, Cal27 cells were incubated with compound 7be at different concentrations for 24 h. MDC staining was used to detect any MDC-positive vesicles in cells of Cal27 cells by confocal microscope (Figure 13a).

[11] = tested on: human oral cancer Cal27 xenograft tumor; assay: In vivo antitumor activity, Cal27 xenograft; set-up: species or system BALB/c nude mice; conditions: for relative tumor proliferation rate / tumor suppression rate / tumor growth inhibition (TGI): 21 days
Protocol: (§1) Nude mouse organ and tumor tissues fixed with neutral formalin solution were paraffin-embedded according to the conventional processing method. Sections were cut to a thickness of approximately 5 μm, placed on glass slides and dewaxed in an oven at 60 °C, stained for H&E and immunohistochemistry and finally visualized with the Cytation 5 imaging system.
(§2) For this assay, 130 SPF-grade BALB/c mice (female, 4–6 weeks old, 18–20 g) were obtained from Chang Zhou Cavens Laboratory Animal Ltd. (Changzhou, China). The in vivo activity experiments were commissioned by Nanjing OG Pharmaceuticals, Co., Ltd. (Nanjing, China) All mice were housed in plastic cages, fed, and watered under standard conditions and air filtration (22 ± 2 °C; 12 h light/dark cycles). Under aseptic conditions, human oral cancer Cal27 cells were inoculated subcutaneously in the right axilla of BALB/c nude mice. When the tumors had grown to about 85 mm^3, 24 […] mice with good growth status and good homogeneity of tumor size were selected and randomly divided into the following four groups of six mice each: (1) the model group; (2) the low-dose group; (3) the high-dose group; and (4) the positive drug group. The drug dose in the low-dose group was 10 mg/kg, which was injected intraperitoneally once every other day, for the duration of 21 days of administration; the drug dose in the high-dose group was 20 mg/kg, which was injected intraperitoneally once every other day, for the duration of 21 days of administration; and the drug dose in the cisplatin group was 2 mg/kg, which was injected intraperitoneally once every other day, for the duration of 21 days of administration. Normal tissues of the heart, liver, spleen, lung and kidney and half of the tumor tissues were fixed with 4% formalin solution and embedded in paraffin for histological analysis; the other half of the tumor tissues were preserved in liquid nitrogen, and the supernatant was extracted after milling the tissues and detected by Western blot.

[12] = In vivo biological safety evaluation; set-up: species or system BALB/c nude mice
Protocol: as §1, §2

[13] = 10 mg/kg i.p. once every other day
[14] = 20 mg/kg i.p. once every other day

- IC50 [1]: 2.92 ± 0.56 µM
- IC50 [2]: 3.32 ± 1.9 µM
- IC50 [3]: 3.25 ± 1.59 µM
Structure (SMILES): Cc1cc(C)c2c(n1)S(=O)(=O)c1c-2nc(NCCN2CCCCC2)c2ccccc12 [7be, 7,9-Dimethyl-5-((2-(piperidin-1-yl)ethyl)amino) pyrido[3′,2′:4,5]thieno[3,2-c]isoquinoline 11,11-dioxide]
- IC50 [4]: 1.12 ± 0.22 µM
- IC50 [5]: 5.18 ± 1.77 µM
- expression and phosphorylation levels of NF-κB [6]: decrease
- expression levels of PI3K [6]: slightly increased
- phosphorylation levels of PI3K and AKT [6]: significantly repressed
- concentration completely suppressing colony formation ability [7]: 1.5 µM
- migration of Cal27 cells (in words) [8]: effectively inhibit migration
- cells in S [9]: 54.06%
- MDC staining fluorescence ([10]; Cal27, high concentrations (3 μM and 4 μM)): significant green fluorescence
- MDC staining fluorescence ([10]; Cal27, low concentrations (1 μM and 2 μM)): weak green fluorescence
- relative tumor proliferation rate [11, 13]: 52.0%
- tumor suppression rate / tumor growth inhibition (TGI) [11, 13]: 48.53% and 48.5%
- relative tumor proliferation rate [11, 14]: 34.1%
- tumor suppression rate / tumor growth inhibition (TGI) [11, 14]: 64.7% and 64.73%
- expressions of p62, COX-2 and Bcl-2 in tumor tissue ([11]; 20 mg/kg, Western blot of tumor tissue): decreased
- percentage of Ki67-positive cells in tumor tissue ([11]; Ki67 immunostaining): decreased
- body weight of mice during treatment ([12]; 10 or 20 mg/kg i.p., 21 days): no significant decrease in body weight; also recorded: no considerable weight loss
- organ weight of mice ([12]; end of treatment): no significant difference
- H&E staining of major organs ([12]; heart, liver, spleen, lung, kidney): no lesions, degenerations or histopathological abnormalities
